Measured values: article PMC6356855, “Two New Succinimide Derivatives Cladosporitins A and B from the Mangrove-derived Fungus Cladosporium sp. HNWSW-1” (Marine Drugs, 2018)

Assays:
Hela cell line = assay: MTT cytotoxicity assay, Hela; type: cell-based; details: MTT method, mean ± SD, n = 3
Procedure: (§1) The MTT method optimized by Mosmann et al. was performed in vitro to test the cytotoxic activity of compounds 1–6. Adriamycin was used as a positive control and the medium without the test compound was used as a negative control in the bioassay.

BEL-7042 cell line = assay: MTT cytotoxicity assay, BEL-7042; type: cell-based; details: MTT method, mean ± SD, n = 3
Procedure: as §1

K562 cell line = assay: MTT cytotoxicity assay, K562; type: cell-based; details: MTT method, mean ± SD, n = 3
Procedure: as §1

SGC-7901 cell line = assay: MTT cytotoxicity assay, SGC-7901; type: cell-based; details: MTT method, mean ± SD, n = 3
Procedure: as §1

α-glycosidase = α-glycosidase inhibitory activity assay; type: biochemical; details: α-glycosidase inhibition in vitro; mean ± SD, n = 3
Procedure: The method optimized by Jong et al. was performed in vitro to test the α-glucosidase inhibitory activity of compounds 1–5. Acarbose was used as positive control.

[1] = Homo sapiens, K562, cytotoxicity
[2] = Homo sapiens, SGC-7901, cytotoxicity

Molecule | IC50 (Hela cell line) [µM] | IC50 (BEL-7042 cell line) [µM] | IC50 (K562 cell line; cytotoxicity) [µM] | IC50 (SGC-7901 cell line; cytotoxicity) [µM] | IC50 (α-glycosidase) [µM] | IC50 (Hela cell line; Homo sapiens) [µM] | IC50 (K562 cell line; [1]) [µM] | IC50 (SGC-7901 cell line; [2]) [µM]
1,3,6-trihydroxy-7-(1-hydroxyethyl) anthracene-9,10-dione [Compound 5] | > 50 | > 50 | > 50 | > 50 | 49.3 ± 10.6 | – | – | –
C[C@H]1O[C@H](O[C@H]2[C@H](O)[C@@H](O)[C@@H](O[C@H]3[C@H](O)[C@@H](O)C(O)O[C@@H]3CO)O[C@@H]2CO)[C@H](O)[C@@H](O)[C@@H]1N[C@H]1C=C(CO)[C@@H](O)[C@H](O)[C@H]1O (stereo partly drawn) [Acarbose, reference compound] | – | – | – | – | 275.7 ± 2.7 | – | – | –
COc1cccc2c1C(=O)c1c(O)c3c(c(O)c1C2=O)C[C@@](O)(C(=O)CO)C[C@@H]3O[C@H]1C[C@H](N)[C@H](O)[C@H](C)O1 [Adriamycin, reference compound] | – | 11.9 ± 0.37 | – | – | – | 11.5 ± 0.18 | 14.2 ± 0.66 | 6.66 ± 0.2
CCC(C)C=C(C)C1C(C)=CC2(C)CC(C)CCC2C1C(=O)C1C(=O)NC(=O)C1Cc1ccc(O)cc1 (stereo not drawn) [Compound 1, cladosporitin A] | – | > 50 | – | – | > 500 | > 50 | > 50 | > 50
CCC(C)C=C(C)C1C(C)=CC2(C)CC(C)CCC2C1C(=O)C1C(=O)NC(=O)C1Cc1ccc(O)cc1 (stereo not drawn) [Compound 2, cladosporitin B] | > 50 | 29.4 ± 0.35 | 25.6 ± 0.47 | 41.7 ± 0.71 | > 500 | – | – | –
C/C=C/c1cc(=O)c2c(C)cc(O)cc2o1 [Compound 3, clapone] | – | > 50 | – | – | > 500 | > 50 | > 50 | > 50
CCC(C)/C=C(\C)[C@H]1C(C)=C[C@@]2(C)C[C@@H](C)CC[C@@H]2[C@H]1C(=O)C1=C/C(=C/c2ccc(O)cc2)NC1=O (stereo partly drawn) [Compound 4, talaroconvolutin A] | – | 26.7 ± 1.1 | – | – | 78.2 ± 2.1 | 14.9 ± 0.21 | > 50 | > 50
